# Read-outs that look alike come from different tables or passages of the source.
# Legend:
# [1] = test system: P. falciparum 3D7 (CQ-sensitive) erythrocytic stages; assay: In vitro drug sensitivity assay (HRP2-ELISA) against erythrocytic stages, Pf3D7; format: cell-based; conditions: read-out: IC50 Pf3D7
# Description: (§1) The in vitro activity of harmicens 20–37 against the erythrocytic stages of CQ-sensitive (Pf3D7) and multidrug-resistant (PfDd2) P. falciparum strains was evaluated following a previously described method (Table 1).
# (§2) The antiplasmodial activity of harmicens 20–37 was evaluated against two strains of P. falciparum (3D7—CQ-sensitive, Dd2—multidrug-resistant) as previously described using the histidine-rich protein 2 (HRP2) assay. Briefly, 96-well plates were pre-coated with the tested compounds in a three-fold dilution before ring-stage parasites were added to complete the culture medium at a hematocrit of 1.5% and parasitemia of 0.05%. After three days of incubation at 37 °C, 5% CO2, and 5% oxygen, plates were frozen until HRP2-ELISA analysis. All compounds were evaluated in duplicate in at least two independent experiments. The IC50 was determined using a nonlinear regression analysis of log concentration–response curves using the drc-package v0.9.0 of R v2.6.1 (R Foundation, Vienna, Austria).
# [2] = test system: P. falciparum Dd2 (multidrug-resistant) erythrocytic stages; assay: In vitro drug sensitivity assay (HRP2-ELISA) against erythrocytic stages, PfDd2; format: cell-based; conditions: for IC50: read-out: IC50 PfDd2
# Description: as §1, §2
# [3] = test system: HepG2 (hepatocellular carcinoma); assay: MTT cytotoxicity assay, HepG2; format: cell-based, human; conditions: read-out: IC50 HepG2
# Description: (§3) The parent compound harmine, as well as the reference drug 5-fluorouracil, were used as positive controls.
# (§4) The experiments were carried out on five human cell lines purchased from American Type Culture Collection (ATCC): HepG2 (hepatocellular carcinoma; ATCC® HB-8065™), SW620 (colorectal adenocarcinoma; ATCC® CCL-227™), HCT116 (colorectal carcinoma; ATCC® CCL-247™), MCF-7 (breast adenocarcinoma; ATCC® HTB-22™), and Hek293T (embryonic kidney cells; ATCC® CRL-3216™). All cell lines were cultured as monolayers and maintained in Dulbecco’s Modified Eagle Medium (DMEM) (Capricorn Scientific, Ebsdorfergrund, Germany) supplemented with 10% fetal bovine serum (FBS) (Capricorn Scientific, Ebsdorfergrund, Germany), 100 U/mL penicillin, and 100 µg/mL streptomycin (Capricorn Scientific, Ebsdorfergrund, Germany) in a humidified atmosphere with 5% CO2 at 37 °C. Cells were seeded in 96-well plates (Corning, Durham, NC, USA) at 5000–7000 cells per well (depending on the cell-doubling time of a specific cell line) in 0.1 mL media and cultured for 24 h. The next day, the medium was aspirated, and cells were treated for 72 h. Only the compounds that led to more than a 50% reduction in mitochondrial metabolic activity at a concentration of 50 µM were selected for further analysis. The following concentrations of selected compounds were used: 25, 10, 5, and 1 µM. Working dilutions were freshly prepared on the day of the testing. A fresh growth medium was added to untreated control cells, which were defined as 100% viable. DMSO (0.13%) in DMEM was considered a negative control. 5-Fluorouracil (5-FU) and harmine were used as positive controls. At the end of treatment, the medium was removed, and cells were incubated for 1 h with 0.5 mg/mL MTT (Abcam, Cambridge, MA, USA) dissolved in serum-deprived DMEM. The MTT-containing medium was then removed, and 0.1 mL isopropanol was added per well to lyse cells and dissolve formazan. The optical density was measured at 570 nm using a microplate reader (VICTOR3, PerkinElmer, Waltham, MA, USA). Each test point was performed in triplicate. The absorbance was directly proportional to the cell viability. The IC50 values (concentration required to decrease viability by 50%) were calculated by using nonlinear regression on the sigmoidal dose–response plots and are expressed as mean ± SD.
# [4] = test system: SW620 (colorectal adenocarcinoma); assay: MTT cytotoxicity assay, SW620; format: cell-based, human; conditions: read-out: IC50 SW620
# Description: as §3, §4
# [5] = test system: HCT116 (colorectal carcinoma); assay: MTT cytotoxicity assay, HCT116; format: cell-based, human; conditions: for IC50: read-out: IC50 HCT116; for SI (HCT116): selectivity index: ratio of IC50 Hek293T to IC50 HCT116
# Description: as §3, §4
# [6] = test system: MCF-7 (breast adenocarcinoma); assay: cells; conditions: for IC50: read-out: IC50 MCF-7; for SI (MCF-7): selectivity index: ratio of IC50 Hek293T to IC50 MCF-7
# Description: as §3, §4
# [7] = test system: Hek293T (embryonic kidney cells); assay: MTT cytotoxicity assay, Hek293T; format: cell-based, human; conditions: 72 h, read-out: IC50 Hek293T
# Description: as §3, §4
# [8] = Plasmodium falciparum, DD2, 72 h
# [9] = CQ-sensitive strain, three days incubation, mean ± SD
# [10] = multidrug-resistant strain, three days incubation, mean ± SD
# [11] = noncancer cell line, MTT, mean ± SD
SMILES,"IC50 [1, 9] [µM]","IC50 [2, 10] [µM]","IC50 ([3]; 72 h, MTT, mean ± SD) [µM]","IC50 ([4]; 72 h, MTT, mean ± SD) [µM]","IC50 ([5]; 72 h, MTT, mean ± SD) [µM]",SI (HCT116) [5],"IC50 ([6]; 72 h, MTT, mean ± SD) [µM]",SI (MCF-7) [6],"IC50 [7, 11] [µM]",also measured
"CCN(CC)CCCC(C)Nc1ccnc2cc(Cl)ccc12 (stereo not shown) [CQ, chloroquine, reference compound]",–,–,–,–,–,–,–,–,–,"IC50 ([1]; Plasmodium falciparum, 3D7, 72 h): 0.004 ± 0.002 µM; IC50 [2, 8]: 0.29 ± 0.1 µM"
"Cc1nccc2c1[nH]c1ccc(OCCn3cc(-[c-]4cccc4)nn3)cc12.[Fe+2].c1cc[cH-]c1 [Compound 22, 1-Methyl-6-(2-(4-ferrocenyl-1H-1,2,3-triazol-1-yl)ethoxy)-9H-pyrido[3,4-b]indole]",0.35 ± 0.19,0.89 ± 0.01,8.4 ± 0.9,6.5 ± 0.7,9 ± 0.7,0.8,6.9 ± 0.5,1.1,7.3 ± 2.8,–
"Cc1nc(CNC(=O)C[c-]2cccc2)cc2c1[nH]c1ccccc12.[Fe+2].c1cc[cH-]c1 [Compound 35, N-((1-Methyl-9H-pyrido[3,4-b]indol-3-yl)methyl)-2-ferrocenylacetamide]",7.85 ± 2.18,13 ± 5.9,> 50,25 ± 8.1,20.9 ± 1.5,>2.4,36.9 ± 6.8,>1.4,> 50,–
"Cc1nc(CNC(=O)[c-]2cccc2)cc2c1[nH]c1ccccc12.[Fe+2].c1cc[cH-]c1 [Compound 31, N-((1-Methyl-9H-pyrido[3,4-b]indol-3-yl)methyl)ferrocenecarboxamide]",13.2 ± 8.54,8.03 ± 0.19,> 50,> 50,> 50,>1,19.9 ± 1.1,>2.51,> 50,–
"Cc1nccc2c1[nH]c1cc(OCCNC(=O)[c-]3cccc3)ccc12.[Fe+2].c1cc[cH-]c1 [Compound 32, N-(2-((1-Methyl-9H-pyrido[3,4-b]indol-7-yl)oxy)ethyl)ferrocenecarboxamide]",0.3 ± 0.09,0.66 ± 0.01,15.6 ± 0.3,9.9 ± 4,6.6 ± 0.8,2.8,9.1 ± 1.4,2,18.6 ± 0.2,–
"[Fe+2].c1cc[cH-]c1.c1ccc2c(c1)[nH]c1c(Cn3cc(-[c-]4cccc4)nn3)nccc12 [Compound 20, 1-((4-Ferrocenyl-1H-1,2,3-triazol-1-yl)methyl)-9H-pyrido[3,4-b]indole]",9.23 ± 1.96,11.2 ± 2.23,43.9 ± 1.1,> 50,29.4 ± 4.6,>1.7,39.4 ± 7.9,>1.3,> 50,–
"COc1ccc2c3ccnc(C)c3n(CCn3cc(-[c-]4cccc4)nn3)c2c1.[Fe+2].c1cc[cH-]c1 [Compound 24, 7-Methoxy-1-methyl-9-(2-(4-ferrocenyl-1H-1,2,3-triazol-1-yl)ethyl)-9H-pyrido[3,4-b]indole]",1.35 ± 0.28,2.31 ± 0.29,> 50,> 50,> 50,>1,> 50,>1,> 50,–
"COc1ccc2c3ccnc(C)c3n(CCNC(=O)C[c-]3cccc3)c2c1.[Fe+2].c1cc[cH-]c1 [Compound 37, N-(2-(7-Methoxy-1-methyl-9H-pyrido[3,4-b]indol-9-yl)ethyl)-2-ferrocenylacetamide]",0.83 ± 0.23,1.8 ± 0.35,28 ± 2.5,9.9 ± 1.1,7.5 ± 0.4,4.1,13.2 ± 0.5,2.3,30.8 ± 2.4,–
"O=C(NCc1nccc2c1[nH]c1ccccc12)[c-]1cccc1.[Fe+2].c1cc[cH-]c1 [Compound 30, N-((9H-Pyrido[3,4-b]indol-1-yl)methyl)ferrocenecarboxamide]",> 56,14 ± 1.95,> 50,45.1 ± 3.7,16.8 ± 0.9,>3,8.5 ± 1.5,>5.9,> 50,activity against MCF-7 relative to 5-FU (fold stronger) [6]: 3–6.5 fold
"COc1ccc2c(c1)[nH]c1c(C)nccc12 [HAR, harmine]",–,–,–,–,–,–,–,–,–,"IC50 [2, 8]: > 27.7 µM; IC50 PfDd2 [2, 10]: not active at all; IC50 ([3]; Homo sapiens, HepG2, 72 h): 18.7 ± 0.8 µM; IC50 ([4]; Homo sapiens, SW-620, 72 h): 4.7 ± 0.6 µM; IC50 ([5]; Homo sapiens, HCT-116, 72 h): 4 ± 0.8 µM; IC50 ([6]; Homo sapiens, MCF7, 72 h): 13.5 ± 1.1 µM; IC50 ([7]; Homo sapiens, HEK-293T): 12.6 ± 0.8 µM"
"Cc1nc(Cn2cc(-[c-]3cccc3)nn2)cc2c1[nH]c1ccccc12.[Fe+2].c1cc[cH-]c1 [Compound 21, 1-Methyl-3-((4-ferrocenyl-1H-1,2,3-triazol-1-yl)methyl)-9H-pyrido[3,4-b]indole]",7.14 ± 0.38,6.06 ± 1.36,> 50,19.7 ± 1.9,8.3 ± 1.4,>6,17.7 ± 0.6,>2.8,> 50,–
"O=C(C[c-]1cccc1)NCc1nccc2c1[nH]c1ccccc12.[Fe+2].c1cc[cH-]c1 [Compound 34, N-((9H-Pyrido[3,4-b]indol-1-yl)methyl)-2-ferrocenylacetamide]",1.34 ± 0.09,1.11 ± 0.01,> 50,> 50,> 50,>1,> 50,>1,> 50,–
"COc1ccc2c3ccnc(C)c3n(CCNC(=O)[c-]3cccc3)c2c1.[Fe+2].c1cc[cH-]c1 [Compound 33, N-(2-(7-Methoxy-1-methyl-9H-pyrido[3,4-b]indol-9-yl)ethyl)ferrocenecarboxamide]",0.4 ± 0.18,2.04 ± 0.29,> 50,> 50,16.3 ± 3.2,–,30.5 ± 13.2,>1.7,> 50,–
"[Fe+2].c1cc[cH-]c1.c1ccc2c(c1)[nH]c1c(-c3cn(C[c-]4cccc4)nn3)nccc12 [Compound 25, 1-(1-(Ferrocenylmethyl)-1H-1,2,3-triazol-4-yl)-9H-pyrido[3,4-b]indole]",3.62 ± 1.08,4.37 ± 1.79,> 50,23.1 ± 6.4,7.6 ± 0.5,>6.6,> 50,>1,> 50,–
"O=c1[nH]cc(F)c(=O)[nH]1 [Compound 5-FU, 5-fluorouracil, reference compound]",–,–,–,–,–,1.6,–,0.3,–,"IC50 ([3]; Homo sapiens, HepG2, 72 h, MTT, mean ± SD): 5.5 ± 0.6 µM; IC50 ([4]; Homo sapiens, SW-620, 72 h, MTT, mean ± SD): 9.4 ± 0.3 µM; IC50 ([5]; Homo sapiens, HCT-116, 72 h, MTT, mean ± SD): 5.2 ± 2.8 µM; IC50 ([6]; Homo sapiens, MCF7, 72 h): 23.9 ± 5.7 µM; IC50 ([7]; Homo sapiens, HEK-293T, noncancer cell line, MTT, mean ± SD): 8.1 ± 0.8 µM"
